# Measurements published in publication PMC7217877, “N-AS-triggered SPMs are direct regulators of microglia in a model of Alzheimer’s disease” (Nature Communications, 2020).
# Values joined by “and” are separate entries in the source; they are usually repeats but may differ in a detail not shown here. Equal entries are not always repeated.
# Key:
# Type in all cases: in vivo, mouse
# APP/PS1 mice [1] = assay: Caspase-3+ cells, apoptosis (Supplementary Fig 7o)
# Description: (§1) Thioflavin S (Sigma-Aldrich) staining was carried out according to previously described procedures. We used 6E10 (mouse, 1:100, Signet, SIG39300), anti-20G10 (mouse, 1:1000, provided by D. R. Howlett, GlaxoSmithKline, Harlow, Essex, UK) for Aβ42, anti-G30 (rabbit, 1:1000, provided by D. R. Howlett) for Aβ40, SMA (mouse, 1:400, Sigma-Aldrich, A2547), AT8 (mouse, 1:500, Thermo Fisher Scientific, MN1020), Caspase-3 (mouse, 1:200, Novus Biologicals, NB100-56708), ac-S565 (rabbit, 1:100), COX2 (mouse, 1:250, Thermo Fisher Scientific, 35-8200), Iba1 (rabbit, 1:500, Wako, 019-19941 and goat, Abcam, ab5076), NeuN (mouse, 1:500, Millipore, MAB177), GFAP (rabbit, 1:500, Dako, N1506 and chicken, 1:500, Abcam, ab4674), and Lamp1 (mouse, 1:200, Abcam, ab24170). The sections were analyzed with a laser-scanning confocal microscope (FV3000; Olympus) or with a BX51 microscope (Olympus). MetaMorph software (Molecular Devices) was used to quantification. Three-dimensional reconstruction of microglia was recorded and analyzed using IMARIS software (Bitplane)[11]. For the analysis of age-dependent microglial COX2^+ CX3CR1^+ cells in WT and APP/PS1 mice, COX2 (rabbit, 1:100, Abcam, ab15191) and CX3CR1 (mouse, 1:100, BioLegend, 149008) antibody were used and the images were acquired on Alexa 488 and APC Channel with performed using Operetta CLS and Analysis Software 4.5 (Perkin-Elmer). […]
# APP/PS1 mice [2] = assay: ac-S565 COX2 in microglia and neuron of treated mice (immunofluorescence, western blot, Fig 4c,d); conditions: APP/PS1 + N-AS, individual values
# Text: Adult neurons and microglia were isolated from the mice brain as previously described. In brief, the cortex of WT (1, 3, 5, or 9-months-old), APP/PS1 (1, 3, 5, or 9-months-old), APP/PS1 treated with N-AS (9-months-old) or APP/PS1 treated with aspirin (9-months-old) mice were minced in Hibernate A (Gibco)/B27 (Invitrogen) medium and dissociated using papain (Worthington) solution. After tissue trituration, cells were separated by Optiprep (Sigma-Aldrich) density gradient centrifugation. The purity of the fractionated neurons and microglia were acutely confirmed by neuronal (NeuN, mouse, 1:200, Millipore, MAB377) and microglial (Iba1, rabbit, 1:1000, Wako, 019-19941) markers and the isolated neurons and microglia were acutely analyzed for the acetylation assay and lipid mediators metabololipidomics.
# as §1, with “(Bitplane)[11].” for “(Bitplane)[11]. For the analysis of age-dependent microglial COX2^+ CX3CR1^+ cells in WT and APP/PS1 mice, COX2 (rabbit, 1:100, Abcam, ab15191) and CX3CR1 (mouse, 1:100, BioLegend, 149008) antibody were used and the images were acquired on Alexa 488 and APC Channel with performed using Operetta CLS and Analysis Software 4.5 (Perkin-Elmer).”
# Samples were lysed in RIPA buffer (Cell signaling Technologies), then subjected to SDS-PAGE and transferred to a nitrocellulose membrane. […] We performed densitometric quantification using the ImageJ software (National Institutes of Health). […]
# APP/PS1 mice [3] = assay: flow cytometry of brain immune cells (Fig 5c-g); conditions: APP/PS1 + N-AS, individual values
# Description: Transgenic mouse lines over-expressing the hAPP695swe (APP) and presenilin-1M146V (PS1) mutations were originated from GlaxoSmithKline (Harlow, UK)[32] and maintained as described previously. We purchased 5×FAD mice from Jackson Labs (Stock number. 34840-JAX). Because APP/PS1 and 5xFAD mice show sex differences in disease progression, we used only male mice. To examine possible therapeutic effect of N-AS and aspirin in APP/PS1 mice, the N-AS (30 mg kg^−1, Sigma-Aldrich, 01912) was injected daily s.c. for 8 weeks to 7-months-old APP/PS1 mice until the age of 9 months, and aspirin (2 mg kg^−1, Sigma-Aldrich, A5376)[33] was administrated orally to 7-months-old APP/PS1 mice for 8 weeks. Also, to confirm possible therapeutic efficacy of N-AS in 5×FAD, the N-AS (30 mg kg^−1, Sigma-Aldrich, 01912) was injected daily s.c. for 4 weeks to 3-months-old 5×FAD mice until the age of 4 months. Block randomization method was used to allocate the animals to experimental groups. To eliminate the bias, we were blinded in experimental progress such as data collection and data analysis. Mice were housed at temperature of 22 °C and a 12 h day/12 h night cycle with free access to tap water and food pellets. All protocols were approved by the Kyungpook National University Institutional Animal Care and Use Committee.
# Brain microglia polarity and immune cells in brain and blood were analyzed by flow cytometry. Cells from WT, APP/PS1, and APP/PS1 treated with N-AS mice brain were prepared as previously described with minor modifications. Brains of WT, APP/PS1, and APP/PS1 treated with N-AS mice were dissected and immediately transferred in ice-cold HBSS (Gibco). After gentle mincing, the brain was digested in a HBSS solution containing collagenase P (0.2 mg ml^−1, Roche), dispase II (0.8 mg ml^−1, Roche), DNase I (0.01 mg ml^−1, Roche), and collagenase A (0.3 mg ml^−1, Roche) at 37 °C for 1 h under gentle rocking. Digestion was stopped by adding FBS (Gibco) on ice. The supernatants were centrifuged at 250×g for 10 min at 4 °C. The pellet was resuspended in 25% BSA (Gibco)/PBS (Gibco) for myelin removal. Following a centrifugation step at 3000×g for 30 min at 4 °C, the myelin containing supernatant was discarded. The cell pellets were then resuspended in 1 ml of HBSS and filtered through a 40 μm mesh, followed by a washing step in HBSS. The cell pellets were resuspended in 1 ml of red blood cell lysis buffer (BD Biosciences) and incubated at RT for 10 min for lysis of erythrocytes. Subsequently, 2 ml of MACs buffer (Miltenyl Biotec, 130-091-222) was added and centrifuged at 250×g for 10 min at 4 °C. Cells from WT, APP/PS1, and APP/PS1 treated with N-AS mice blood were prepared as previously described with minor modifications. Blood was collected in sodium-heparin tube (BD, 367871) by cardiac puncture. Red blood cells were lysed once at 4 °C for 10 min in 0.15 M NH4Cl ([…] Technologies), washed once with PBS (Gibco), and counted using cell counter (Logos biosystems). […]
smiles,measurement,setting,value
"CCCCCCCCCCCCC/C=C/[C@@H](O)[C@H](CO)NC(C)=O [N-AS, N-((2S,3R,E)-1,3-Dihydroxyoctadec-4-en-2-yl)acetamide]",Caspase-3+ cells,"APP/PS1 mice [1]; APP/PS1 + N-AS, sFig 7o",0.7653 and 0.8763 and 0.6283 and 0.6646 and 0.8616 and 0.8325
same,apoptosis (Caspase-3+ cells),APP/PS1 mice [1]; N-AS vs vehicle APP/PS1,apoptosis was not changed
same,"microglia (Iba1) with ac-S565 and COX2 in cortex, quantification (Fig 4c)",APP/PS1 mice [2],2.146 and 2.677 and 1.427 and 1.497 and 1.3659 and 1.3538
same,"ac-S565 / total COX2, western blot (Fig 4d)",APP/PS1 mice [2]; Microglia,1.271 and 0.7861 and 0.8284 and 0.7309 and 1.0567 and 1.371
same,"ac-S565 / total COX2, western blot (Fig 4d)",APP/PS1 mice [2]; Neuron,0.9062 and 0.3691 and 0.5034 and 0.9834 and 0.3378 and 0.4586
same,calculated percentage of B220+ B cell,APP/PS1 mice [3],2.8 and 2.66 and 2.73 and 2.695
same,calculated percentage of CD4+ T cell,APP/PS1 mice [3],2.24 and 2.43 and 2.335 and 2.3825
same,calculated percentage of CD45+CD11b+Ly6ChiLy6G- monocyte,APP/PS1 mice [3],0.84 and 1.06 and 0.92 and 0.95 and 0.99 and 0.935
same,calculated percentage of CD45hi CD11b+ Gr-1- F4/80+ CD206+ (anti-inflammatory macrophage),APP/PS1 mice [3],0.4 and 0.45 and 0.37 and 0.39 and 0.41 and 0.38
same,calculated percentage of CD45hi CD11b+ Gr-1- F4/80+ MHCIIhi (pro-inflammatory macrophage),APP/PS1 mice [3],0.46 and 0.45 and 0.59 and 0.4 and 0.52 and 0.495
same,calculated percentage of cd45+cd11b+gr1+ neutrophil,APP/PS1 mice [3],0.452 and 0.46 and 0.34 and 0.504 and 0.4 and 0.422
same,calculated percentage of cd45+ly6g+gr1+ neutrophil,APP/PS1 mice [3],0.99 and 1.19 and 0.83 and 0.97 and 1.01 and 0.9
